Measurements taken from ChEMBL document CHEMBL4354831, “Novel Cell-Penetrating Peptide Conjugated Proteasome Inhibitors: Anticancer and Antifungal Investigations” (J Med Chem, 2020).
Converted amounts (≈) assume the structure as drawn. The source made the active and inactive calls. The rule behind the calls is not given here. Peptide text beside a SMILES is read from it.

Experiments:
BE(2)-C [1] = assay: Induction of membrane blebbing in human BE(2)-C cells at 2xIC50 after 12 hrs by SEM analysis; format: cell-based; conditions: Cell membrane
HeLa [2] = assay: Antiproliferative activity against human HeLa cells assessed as reduction in cell viability at 1000 uM after 48 hrs by MTT assay relative to control; format: functional
HeLa [3] = assay: Antiproliferative activity against human HeLa cells assessed as reduction in cell viability after 48 hrs by MTT assay; format: functional, cell-based
BE(2)-C [4] = assay: Antiproliferative activity against human BE(2)-C cells assessed as reduction in cell viability at 1000 uM after 48 hrs by MTT assay relative to control; format: functional
HeLa [5] = assay: Induction of pore formation in human HeLa cell membrane at 2xIC50 after 12 hrs by SEM analysis; format: cell-based
BE(2)-C [6] = assay: Antiproliferative activity against human BE(2)-C cells assessed as reduction in cell viability after 48 hrs by MTT assay; format: functional, cell-based
BE(2)-C [7] = assay: Induction of pore formation in human BE(2)-C cell membrane at 2xIC50 after 12 hrs by SEM analysis; format: functional, cell-based
HeLa [8] = assay: Induction of membrane blebbing in human HeLa cells at 2xIC50 after 12 hrs by SEM analysis; format: cell-based; conditions: Cell membrane
Candida albicans [9] = assay: Antifungal activity against Candida albicans SC5314 at 100 uM after 48 hrs; format: functional, organism-based
20S proteasome = assay: Inhibition of human 20S proteasome using Suc-LLVY-AMC as substrate measured every 5 mins for 120 mins by fluorescence based assay; format: protein-complex assay
[10] = Selectivity ratio of IC50 for antiproliferative activity against human BE(2)-C cells to IC50 for antiproliferative activity against human HeLa cells after 48 hrs by MTT assay; format: functional
Candida albicans [11] = assay: Antifungal activity against Candida albicans SC5314 after 48 hrs; format: functional; conditions: SC5314, 48 h
Candida albicans [12] = assay: Induction of hyphal disruption in Candida albicans SC5314 by SEM analysis; format: organism-based; conditions: Hyphae
Candida albicans [13] = assay: Induction of pore formation in Candida albicans SC5314 membrane by SEM analysis; format: organism-based; conditions: Cell membrane

Compound | Activity (BE(2)-C [1]) | inhibition at 1000 µM (HeLa [2]) | IC50 (HeLa [3]) | inhibition at 1000 µM (BE(2)-C [4]) | Activity (HeLa [5]) | IC50 (BE(2)-C [6]) | Activity (BE(2)-C [7]) | Activity (HeLa [8]) | Activity (Candida albicans [9]) | IC50 (20S proteasome) | Ratio IC50 [10] | MIC (Candida albicans [11]) | Activity (Candida albicans [12]) | Activity (Candida albicans [13])
CC(=O)N[C@@H](Cc1ccc(O)cc1)C(=O)NCC(=O)N[C@@H](CCCNC(=N)N)C(=O)N[C@@H](CCCCN)C(=O)N[C@@H](CCCCN)C(=O)N[C@@H](CCCNC(=N)N)C(=O)N[C@@H](CCCNC(=N)N)C(=O)N[C@@H](CCC(N)=O)C(=O)N[C@@H](CCCNC(=N)N)C(=O)N[C@@H](CCCNC(=N)N)C(=O)N[C@@H](CCCNC(=N)N)C(=O)O | inactive | 70% | 62.5 µM | 70% | inactive | 94 µM | inactive | inactive | inactive |  |  |  |  | 
CC(=O)N[C@@H](CC(C)C)C(=O)N[C@@H](CC(C)C)C(=O)N[C@H](C=O)CC(C)C (Ac-Leu-Leu-Leu-aldehyde) |  |  | 39.1 µM |  |  | 61.3 µM |  |  |  | 0.136 µM | 1.5 | > 100 µM |  | 
CC(=O)N[C@@H](Cc1ccc(O)cc1)C(=O)N[C@@H](CC(C)C)C(=O)N[C@@H](Cc1ccccc1)C(=O)N[C@H](C=O)CC(C)C (Ac-YLFL-aldehyde) |  |  | 29.4 µM |  |  | 43.3 µM |  |  |  | 0.0064 µM | 1.5 | > 100 µM |  | 
C[C@@H]1[C@H](O)[C@@H](C)/C=C/C=C/C=C/C=C/C=C/C=C/C=C/[C@H](O[C@@H]2O[C@H](C)[C@@H](O)[C@H](N)[C@@H]2O)C[C@@H]2O[C@](O)(C[C@@H](O)C[C@@H](O)[C@H](O)CC[C@@H](O)C[C@@H](O)CC(=O)O[C@H]1C)C[C@H](O)[C@H]2C(=O)O [AMPHOTERICIN B] |  |  |  |  |  |  |  |  |  |  |  | 1.56 µM (≈ 1.44 µg/mL) | inactive | Active
